# The source made the active and inactive calls. No cut-off for these calls is given here.
# Key:
# Coxsackievirus B3 = assay: Antiviral activity against Coxsackievirus B3 assessed as inhibition of viral replication; assay type: functional, organism-based; settings: Enterovirus B
# BGC-823 = assay: Cytotoxicity against human BGC823 cells at 10 uM after 96 hrs by MTT assay; assay type: functional, cell-based
# HCT-8 = assay: Cytotoxicity against human HCT8 cells at 10 uM after 96 hrs by MTT assay; assay type: functional, cell-based
# A549 = assay: Cytotoxicity against human A549 cells at 10 uM after 96 hrs by MTT assay; assay type: functional, cell-based
# Bel-7402 = assay: Cytotoxicity against human Bel7402 cells at 10 uM after 96 hrs by MTT assay; assay type: functional, cell-based
# Human alphaherpesvirus 1 = assay: Antiviral activity against Herpes simplex virus 1 at 10 uM; assay type: functional, organism-based
# MCF7 = assay: Cytotoxicity against human MCF7 cells at 10 uM after 96 hrs by MTT assay; assay type: functional, cell-based
# [1] = system: Human immunodeficiency virus 1; assay: Antiviral activity against HIV1 infected in 293T cells cotransfected with VSV-G at 10 uM after 48 hrs by ELISA; assay type: functional, organism-based
# KETR3 = assay: Cytotoxicity against human Ketr3 cells at 10 uM after 96 hrs by MTT assay; assay type: functional, cell-based
# [2] = Hepatoprotective activity in rat WB-F344 cells assessed as inhibition of DL-Galactosamine-induced toxicity at 10 uM incubated for 1 hr prior to DL-Galactosamine-challenge measured after 24 hrs by MTT assay; assay type: functional
# Influenza A virus = assay: Antiviral activity against influenza A virus A/Hanfang/359/95 (H3N2) assessed as inhibition of virus-induced cytopathic effect in cell-based assay; assay type: functional, organism-based
SMILES,IC50 (Coxsackievirus B3) [µM],Activity (BGC-823),Activity (HCT-8),Activity (A549),Activity (Bel-7402),Activity (Human alphaherpesvirus 1),Activity (MCF7),Activity [1],Activity (KETR3),inhibition at 10 µM [2] [%],IC50 (Influenza A virus) [µM]
Cc1cc(CCCOc2c(C)cc(-c3noc(C(F)(F)F)n3)cc2C)on1 [PLECONARIL],0.41,–,–,–,–,–,–,–,–,–,–
O=C1/C(=C/c2c[nH]c3ccccc23)Nc2ccccc21,–,inactive,inactive,inactive,inactive,inactive,inactive,inactive,inactive,44,–
COc1cccc2[nH]cc(CC#N)c12 [ARVELEXIN],–,inactive,inactive,inactive,inactive,inactive,inactive,inactive,inactive,–,3.7
NC(=O)[C@@H]1CC(=O)Nc2ccccc21,–,inactive,inactive,inactive,inactive,inactive,inactive,inactive,inactive,45,–
COc1cccc2c1[C@@](O)(CC#N)C(=O)N2,–,inactive,inactive,inactive,inactive,inactive,inactive,inactive,inactive,47,–
"COc1ccc(C(C#N)c2c[nH]c3ccccc23)c2[nH]cc(CC#N)c12 (single isomer, unassigned)",–,inactive,inactive,inactive,inactive,inactive,inactive,inactive,inactive,–,3.7
NC(=O)CC1C(=O)Nc2ccccc21 (racemic),6.87,inactive,inactive,inactive,inactive,inactive,inactive,inactive,inactive,–,–
COc1ccc([C@@H](C)c2ccc(O)cc2)c2[nH]cc(CC#N)c12,–,inactive,inactive,inactive,inactive,inactive,inactive,inactive,inactive,–,3.7
"COc1cccc2[nH]cc(C(C#N)c3ccc(OC)c4c(CC#N)c[nH]c34)c12 (single isomer, unassigned)",–,inactive,inactive,inactive,inactive,inactive,inactive,inactive,inactive,–,3.7
N#CC[C@H]1C(=O)Nc2cccc(O)c21,–,inactive,inactive,inactive,inactive,inactive,inactive,inactive,inactive,46,–
CCOC(=O)C1=C[C@@H](OC(CC)CC)[C@H](NC(C)=O)[C@@H](N)C1 [OSELTAMIVIR],–,–,–,–,–,–,–,–,–,–,1.23

# From ChEMBL document CHEMBL2062405, “Alkaloids from the root of Isatis indigotica” (J Nat Prod, 2012)
